Measured values taken from PubChem BioAssay AID2060900 (Molecular Pharmacology Branch, DTP, NCI, 2025).

Tested on: 521955-158-R2-J5-PDC complex spheroids, viability
Assay: Anticancer human tumor 521955-158-R2-J5-PDC patient-derived pancreatic carcinoma cell line growth inhibition [RAS]
Conditions: for IC50: curve of first compound; for viability, T/C: stronger effect = lower value
How it was run: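 Tumour cells grown as complex spheroids with HUVEC endothelial cells and mesenchymal stem cells, treated with RAS pathway inhibitor combinations. Each agent spans half-log steps from near clinical Cmax, or 10 microM where Cmax is unknown.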
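Note: compound exposure lasted seven days before the viability read.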
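Throughout, for viability, T/C: spheroids also contain HUVEC endothelial cells and mesenchymal stem cells as stroma.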

Structure (SMILES): CCC(CC)c1cc(NC2CCC(N)C2)n2nccc2n1 (centres undefined) + C#Cc1c(F)ccc2cc(O)cc(-c3ncc4c(N5CC6CCC(C5)N6)nc(OCC56CCCN5CC(F)C6)nc4c3F)c12
- IC50 (second compound 0.0316 µM): 1370 nM
- IC50 (second compound 0.1 µM): 1160 nM
- IC50 (second compound 0.316 µM): 1080 nM
- IC50 (second compound 1 µM): 737 nM
- IC50 (second compound 3.16 µM): 935 nM
- IC50 (second compound 10 µM): 31.6 nM
- viability, T/C (second compound 0.0316 µM, first compound 0.0316 µM): 62.2%
- viability, T/C (second compound 0.0316 µM, first compound 0.1 µM): 56%
- viability, T/C (second compound 0.0316 µM, first compound 0.316 µM): 68.2%
- viability, T/C (second compound 0.0316 µM, first compound 1 µM): 77.6%
- viability, T/C (second compound 0.0316 µM, first compound 3.16 µM): 5.12%
- viability, T/C (second compound 0.0316 µM, first compound 10 µM): 10.6%
- viability, T/C (second compound 0.1 µM, first compound 0.0316 µM): 51.8%
- viability, T/C (second compound 0.1 µM, first compound 0.1 µM): 59.7%
- viability, T/C (second compound 0.1 µM, first compound 0.316 µM): 65.7%
- viability, T/C (second compound 0.1 µM, first compound 1 µM): 55.8%
- viability, T/C (second compound 0.1 µM, first compound 3.16 µM): 8.07%
- viability, T/C (second compound 0.1 µM, first compound 10 µM): 12.2%
- viability, T/C (second compound 0.316 µM, first compound 0.0316 µM): 56.4%
- viability, T/C (second compound 0.316 µM, first compound 0.1 µM): 72.5%
- viability, T/C (second compound 0.316 µM, first compound 0.316 µM): 56.3%
- viability, T/C (second compound 0.316 µM, first compound 1 µM): 53%
- viability, T/C (second compound 0.316 µM, first compound 3.16 µM): 7.76%
- viability, T/C (second compound 0.316 µM, first compound 10 µM): 12.5%
- viability, T/C (second compound 1 µM, first compound 0.0316 µM): 47.6%
- viability, T/C (second compound 1 µM, first compound 0.1 µM): 54.1%
- viability, T/C (second compound 1 µM, first compound 0.316 µM): 64%
- viability, T/C (second compound 1 µM, first compound 1 µM): 48.1%
- viability, T/C (second compound 1 µM, first compound 3.16 µM): 7.46%
- viability, T/C (second compound 1 µM, first compound 10 µM): 10.2%
- viability, T/C (second compound 3.16 µM, first compound 0.0316 µM): 53.8%
- viability, T/C (second compound 3.16 µM, first compound 0.1 µM): 61.7%
- viability, T/C (second compound 3.16 µM, first compound 0.316 µM): 52.2%
- viability, T/C (second compound 3.16 µM, first compound 1 µM): 49.7%
- viability, T/C (second compound 3.16 µM, first compound 3.16 µM): 4.58%
- viability, T/C (second compound 3.16 µM, first compound 10 µM): 13.5%
- viability, T/C (second compound 10 µM, first compound 0.0316 µM): 46%
- viability, T/C (second compound 10 µM, first compound 0.1 µM): 51.2%
- viability, T/C (second compound 10 µM, first compound 0.316 µM): 45%
- viability, T/C (second compound 10 µM, first compound 1 µM): 33%
- viability, T/C (second compound 10 µM, first compound 3.16 µM): 4.49%
- viability, T/C (second compound 10 µM, first compound 10 µM): 9.43%

Structure (SMILES): CC1(O)CCCC1n1c(=O)c(C(F)F)cc2cnc(NC3CCN(S(C)(=O)=O)CC3)nc21 (centres undefined) + CCn1c(-c2cccnc2C(C)OC)c2c3cc(ccc31)N1CCOC(CC(NC(=O)C(C(C)C)N(C)C(=O)C3(F)CCN(C(=O)C#CC(C)(C)N(C)C)CC3)C(=O)N3CCCC(N3)C(=O)OCC(C)(C)C2)C1
- IC50 (second compound 0.000949 µM): 4900 nM
- IC50 (second compound 0.003 µM): 5090 nM
- IC50 (second compound 0.00949 µM): 4910 nM
- IC50 (second compound 0.03 µM): 4990 nM
- IC50 (second compound 0.0949 µM): 4430 nM
- IC50 (second compound 0.3 µM): 3760 nM
- viability, T/C (second compound 0.000949 µM, first compound 0.0316 µM): 68.5%
- viability, T/C (second compound 0.000949 µM, first compound 0.1 µM): 66.1%
- viability, T/C (second compound 0.000949 µM, first compound 0.316 µM): 61.6%
- viability, T/C (second compound 0.000949 µM, first compound 1 µM): 59.4%
- viability, T/C (second compound 0.000949 µM, first compound 3.16 µM): 103%
- viability, T/C (second compound 0.000949 µM, first compound 10 µM): 14.8%
- viability, T/C (second compound 0.003 µM, first compound 0.0316 µM): 89.5%
- viability, T/C (second compound 0.003 µM, first compound 0.1 µM): 67.8%
- viability, T/C (second compound 0.003 µM, first compound 0.316 µM): 49.5%
- viability, T/C (second compound 0.003 µM, first compound 1 µM): 82.7%
- viability, T/C (second compound 0.003 µM, first compound 3.16 µM): 89.2%
- viability, T/C (second compound 0.003 µM, first compound 10 µM): 13.5%
- viability, T/C (second compound 0.00949 µM, first compound 0.0316 µM): 88.1%
- viability, T/C (second compound 0.00949 µM, first compound 0.1 µM): 71.1%
- viability, T/C (second compound 0.00949 µM, first compound 0.316 µM): 60.2%
- viability, T/C (second compound 0.00949 µM, first compound 1 µM): 62.1%
- viability, T/C (second compound 0.00949 µM, first compound 3.16 µM): 93.5%
- viability, T/C (second compound 0.00949 µM, first compound 10 µM): 9.48%
- viability, T/C (second compound 0.03 µM, first compound 0.0316 µM): 89.7%
- viability, T/C (second compound 0.03 µM, first compound 0.1 µM): 77.1%
- viability, T/C (second compound 0.03 µM, first compound 0.316 µM): 47.7%
- viability, T/C (second compound 0.03 µM, first compound 1 µM): 76.1%
- viability, T/C (second compound 0.03 µM, first compound 3.16 µM): 78.9%
- viability, T/C (second compound 0.03 µM, first compound 10 µM): 13.6%
- viability, T/C (second compound 0.0949 µM, first compound 0.0316 µM): 67.6%
- viability, T/C (second compound 0.0949 µM, first compound 0.1 µM): 61.1%
- viability, T/C (second compound 0.0949 µM, first compound 0.316 µM): 47.3%
- viability, T/C (second compound 0.0949 µM, first compound 1 µM): 63.1%
- viability, T/C (second compound 0.0949 µM, first compound 3.16 µM): 90.5%
- viability, T/C (second compound 0.0949 µM, first compound 10 µM): 11.6%
- viability, T/C (second compound 0.3 µM, first compound 0.0316 µM): 60.8%
- viability, T/C (second compound 0.3 µM, first compound 0.1 µM): 37.9%
- viability, T/C (second compound 0.3 µM, first compound 0.316 µM): 45.5%
- viability, T/C (second compound 0.3 µM, first compound 1 µM): 58%
- viability, T/C (second compound 0.3 µM, first compound 3.16 µM): 88.2%
- viability, T/C (second compound 0.3 µM, first compound 10 µM): 9.67%
